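Method: 48-hour compound exposure of cells in 96-well plates, five concentrations, linear interpolation of endpoints. At the GI50, growth is halved.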 Active and inactive are the calls of the source. Rule as the data show it: active = GI50 up to about 1.1 µM and inactive = higher.
Assays:
Assay in all cases: NCI tumour cell line growth inhibition, 48 h
COLO 205 = test system: COLO 205
EKVX = test system: EKVX
KM12 = test system: KM12
MDA-MB-231 = test system: MDA-MB-231
MDA-MB-435 = test system: MDA-MB-435
NCI-H226 = test system: NCI-H226
OVCAR-3 = test system: OVCAR-3
OVCAR-8 = test system: OVCAR-8
SF-268 = test system: SF-268
SF-295 = test system: SF-295
SK-MEL-28 = test system: SK-MEL-28
SK-MEL-2 = test system: SK-MEL-2
SK-MEL-5 = test system: SK-MEL-5
SNB-19 = test system: SNB-19
TK-10 = test system: TK-10
HL-60 = test system: HL-60
M14 = test system: M14
MOLT-4 = test system: MOLT-4
SR = test system: SR
RPMI-8226 = test system: RPMI-8226

Measured: GI50

CCCC(=O)OCC1(CO)C/C(=C/CC(C(C)C)C(C)C)C(=O)O1 (stereo not given)
inactive: COLO 205 > 100 µM | EKVX > 100 µM | KM12 44.5 µM | MDA-MB-231 > 100 µM | MDA-MB-435 > 100 µM | NCI-H226 > 100 µM | OVCAR-3 > 100 µM | OVCAR-8 > 100 µM | SF-268 > 100 µM | SF-295 > 100 µM | SK-MEL-28 > 100 µM | SK-MEL-2 > 100 µM | SK-MEL-5 54.7 µM | SNB-19 > 100 µM | TK-10 > 100 µM

CC1=CC2C(C(C)C)CC1C1C(=O)OC(=O)C21 (stereo not given)
inactive: COLO 205 > 100 µM | EKVX > 100 µM | HL-60 23.3 µM | M14 > 100 µM | MDA-MB-231 > 100 µM | MDA-MB-435 > 100 µM | NCI-H226 > 100 µM | OVCAR-3 23.2 µM | OVCAR-8 65.6 µM | SF-268 > 100 µM | SK-MEL-28 > 100 µM | SK-MEL-2 > 100 µM | SK-MEL-5 85.5 µM | SNB-19 > 100 µM | TK-10 45.8 µM

Clc1c(Cl)c(Cl)c2nn(C3CCCO3)nc2c1Cl (stereo not given)
inactive: COLO 205 55.6 µM | EKVX 19.5 µM | M14 > 100 µM | MDA-MB-231 76.7 µM | MDA-MB-435 44.3 µM | MOLT-4 30.5 µM | NCI-H226 > 100 µM | OVCAR-3 43 µM | OVCAR-8 63.5 µM | SF-268 46.6 µM | SF-295 39.4 µM | SK-MEL-2 68.1 µM | SK-MEL-5 25.5 µM | SNB-19 26.7 µM | SR 52.6 µM | TK-10 69.8 µM

COC1=C(OC)C(=O)C(Cc2c(Cl)nc3sc(C)cn23)=C(C)C1=O
inactive: COLO 205 19.6 µM | EKVX 17.3 µM | KM12 13.3 µM | M14 17.1 µM | MDA-MB-231 12.2 µM | MDA-MB-435 18.2 µM | MOLT-4 1.29 µM | OVCAR-3 12.2 µM | OVCAR-8 19.1 µM | RPMI-8226 11.2 µM | SF-268 16.6 µM | SF-295 16.6 µM | SK-MEL-28 17.9 µM | SK-MEL-2 22.3 µM | SK-MEL-5 11.2 µM | SNB-19 17.9 µM | SR 16.7 µM | TK-10 16.4 µM

Oc1ccc(Cl)cc1-c1cc(-c2ccccc2)nc(S)n1
inactive: COLO 205 > 100 µM | EKVX 4.52 µM | HL-60 > 100 µM | KM12 92.5 µM | M14 > 100 µM | MDA-MB-231 30.5 µM | MDA-MB-435 > 100 µM | MOLT-4 > 100 µM | NCI-H226 > 100 µM | OVCAR-3 > 100 µM | OVCAR-8 > 100 µM | RPMI-8226 > 100 µM | SF-268 27.3 µM | SF-295 28.6 µM | SK-MEL-28 > 100 µM | SK-MEL-2 27.2 µM | SK-MEL-5 > 100 µM | SNB-19 42.9 µM | TK-10 30.5 µM

C/C(Cc1ccc2c(c1)OCO2)=N\NC(=O)C(C)Sc1nnc(SC(C)C(=O)N/N=C(\C)Cc2ccc3c(c2)OCO3)s1 (stereo not given)
inactive: COLO 205 > 100 µM | EKVX 81.3 µM | HL-60 > 100 µM | KM12 > 100 µM | M14 > 100 µM | MDA-MB-231 84.7 µM | MDA-MB-435 > 100 µM | MOLT-4 27.7 µM | NCI-H226 > 100 µM | OVCAR-3 > 100 µM | OVCAR-8 > 100 µM | RPMI-8226 37.6 µM | SF-268 > 100 µM | SF-295 > 100 µM | SK-MEL-28 > 100 µM | SK-MEL-2 > 100 µM | SK-MEL-5 69.3 µM | SNB-19 > 100 µM | TK-10 > 100 µM

COc1ccccc1/C=C1\SC(=S)N(/C=C2\C(=O)Oc3ccccc3C2=O)C1=O
inactive: COLO 205 24 µM | EKVX 24.1 µM | KM12 34.3 µM | M14 36.2 µM | MDA-MB-231 23 µM | MDA-MB-435 25.6 µM | MOLT-4 33.9 µM | NCI-H226 35.3 µM | OVCAR-3 19.8 µM | OVCAR-8 28.8 µM | SF-268 33.3 µM | SK-MEL-2 21.9 µM | SK-MEL-5 20.5 µM | SNB-19 32.7 µM | TK-10 28.1 µM

CC1=NC2=Nc3nc(C)cc[n+]3CN2C=C1
inactive: COLO 205 67.5 µM | EKVX 30.7 µM | M14 > 100 µM | MDA-MB-231 54.7 µM | MDA-MB-435 40 µM | NCI-H226 > 100 µM | OVCAR-3 > 100 µM | OVCAR-8 > 100 µM | RPMI-8226 19.1 µM | SF-268 > 100 µM | SF-295 85.5 µM | SK-MEL-28 53.1 µM | SK-MEL-2 > 100 µM | SK-MEL-5 53.3 µM | SNB-19 > 100 µM | TK-10 88.3 µM

Clc1cc(Cl)cc(C2ON=C(c3ccccc3)N2C23CC4CC(CC(C4)C2)C3)c1 (stereo not given)
inactive: COLO 205 > 10 µM | EKVX > 10 µM | KM12 > 10 µM | M14 > 10 µM | MDA-MB-231 > 10 µM | MDA-MB-435 > 10 µM | MOLT-4 > 10 µM | NCI-H226 > 10 µM | OVCAR-3 > 10 µM | OVCAR-8 > 10 µM | RPMI-8226 > 10 µM | SF-268 > 10 µM | SF-295 > 10 µM | SK-MEL-28 > 10 µM | SK-MEL-2 > 10 µM | SK-MEL-5 > 10 µM | SNB-19 > 10 µM | TK-10 > 10 µM

COC(=O)CCC(NC(=O)C(C)NC(=O)COC1C(O)C(OC(=O)CCNc2c3ccccc3nc3cccc([N+](=O)[O-])c23)OC(OCc2ccccc2)C1NC(C)=O)C(N)=O (stereo not given)
inactive: EKVX > 10 µM | KM12 5.71 µM | M14 2.79 µM | MDA-MB-231 3.48 µM | MDA-MB-435 3.39 µM | MOLT-4 3 µM | NCI-H226 > 10 µM | OVCAR-3 5.42 µM | OVCAR-8 6.5 µM | SF-268 7.26 µM | SF-295 > 10 µM | SK-MEL-2 1.93 µM | SK-MEL-5 1.61 µM | SNB-19 5.36 µM | TK-10 > 10 µM

CCNc1cc2oc(=O)cc(C(F)(F)F)c2cc1C
inactive: COLO 205 > 100 µM | EKVX 31.3 µM | KM12 > 100 µM | M14 > 100 µM | MDA-MB-231 > 100 µM | MDA-MB-435 > 100 µM | MOLT-4 > 100 µM | NCI-H226 > 100 µM | OVCAR-3 > 100 µM | OVCAR-8 > 100 µM | RPMI-8226 > 100 µM | SF-268 > 100 µM | SF-295 > 100 µM | SK-MEL-28 > 100 µM | SK-MEL-2 > 100 µM | SK-MEL-5 > 100 µM | SNB-19 > 100 µM | TK-10 > 100 µM

C[C@H](CCC(=O)O)[C@H]1CC[C@H]2[C@@H]3[C@H](O)[C@H](O)[C@@H]4C[C@H](O)CC[C@]4(C)[C@H]3CC[C@]12C [HYOCHOLIC ACID]
inactive: COLO 205 > 100 µM | EKVX > 100 µM | HL-60 > 100 µM | KM12 > 100 µM | M14 > 100 µM | MDA-MB-231 > 100 µM | MDA-MB-435 > 100 µM | MOLT-4 > 100 µM | NCI-H226 > 100 µM | OVCAR-8 > 100 µM | RPMI-8226 > 100 µM | SF-268 > 100 µM | SK-MEL-28 > 100 µM | SK-MEL-2 > 100 µM | SNB-19 > 100 µM | TK-10 > 100 µM

— ChEMBL document CHEMBL1201862, “PubChem BioAssay data set” (2004)
